Measurements taken from the supplement of paper PMC10307832.

Key:
Assay in all cases: relative viability (nuclei count vs DMSO), 5 days (fraction); higher = more cells survive
[1] = compound: CC(C)CCN1c2nc(Nc3cc(F)c(O)c(F)c3)ncc2N(C)C(=O)C1C [BI-D1870] + O=C(c1cc(Cc2n[nH]c(=O)c3ccccc23)ccc1F)N1CCN(C(=O)C2CC2)CC1 [Olaparib] (partner 8 µM)
Outline: (§1)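 Lung cancer cell lines in 1536-well plates got either a single drug or a fixed anchor-drug dose together with five library-drug doses (not always all listed) in √10 steps, by pin tool, on the day after seeding. Nuclei were counted after 5 days, and relative viability is the treated-to-vehicle ratio of nuclei counts. Values are medians of duplicate plates.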

[2] = compound: O=c1ncccn1[C@@H]1O[C@H](CO)[C@@H](O)[C@H]1O [Zebularine] + O=C(CCCCCCC(=O)Nc1ccccc1)NO [Vorinostat] (partner 1 µM)
Outline: as §1

[3] = compound: CC(C)CCN1c2nc(Nc3cc(F)c(O)c(F)c3)ncc2N(C)C(=O)C1C [BI-D1870] + Nc1nc2[nH]cc(CCc3ccc(C(=O)N[C@@H](CCC(=O)O)C(=O)O)cc3)c2c(=O)[nH]1 [Pemetrexed] (partner 0.2 µM)
Outline: as §1

[4] = compound: O=c1ncccn1[C@@H]1O[C@H](CO)[C@@H](O)[C@H]1O [Zebularine] + CS(=O)(=O)N1CCN(Cc2cc3nc(-c4cccc5[nH]ncc45)nc(N4CCOCC4)c3s2)CC1 [Pictilisib] (partner 1 µM)
Outline: as §1

LOU-NH91
relative viability ([1]; first compound 0.04 µM): 1.06
relative viability ([1]; first compound 0.1265 µM): 0.892
relative viability ([1]; first compound 0.4 µM): 0.903
relative viability ([1]; first compound 1.265 µM): 0.911
relative viability ([1]; first compound 4 µM): 0.669
relative viability ([2]; first compound 1 µM): 0.981
relative viability ([2]; first compound 3.162 µM): 0.899
relative viability ([2]; first compound 10 µM): 0.81
relative viability ([2]; first compound 31.62 µM): 0.9
relative viability ([2]; first compound 100 µM): 0.557
relative viability ([3]; first compound 0.04 µM): 0.355
relative viability ([3]; first compound 0.1265 µM): 0.372
relative viability ([3]; first compound 0.4 µM): 0.329
relative viability ([3]; first compound 1.265 µM): 0.386
relative viability ([3]; first compound 4 µM): 0.344
relative viability ([4]; first compound 1 µM): 0.52
relative viability ([4]; first compound 3.162 µM): 0.471
relative viability ([4]; first compound 10 µM): 0.498
relative viability ([4]; first compound 31.62 µM): 0.505
relative viability ([4]; first compound 100 µM): 0.451

LU99A
relative viability ([1]; first compound 0.04 µM): 0.274
relative viability ([1]; first compound 0.1265 µM): 0.243
relative viability ([1]; first compound 0.4 µM): 0.264
relative viability ([1]; first compound 1.265 µM): 0.244
relative viability ([1]; first compound 4 µM): 0.229
relative viability ([2]; first compound 1 µM): 0.536
relative viability ([2]; first compound 3.162 µM): 0.513
relative viability ([2]; first compound 10 µM): 0.414
relative viability ([2]; first compound 31.62 µM): 0.379
relative viability ([2]; first compound 100 µM): 0.174
relative viability ([3]; first compound 0.04 µM): 0.178
relative viability ([3]; first compound 0.1265 µM): 0.2
relative viability ([3]; first compound 0.4 µM): 0.171
relative viability ([3]; first compound 1.265 µM): 0.183
relative viability ([3]; first compound 4 µM): 0.135
relative viability ([4]; first compound 1 µM): 0.329
relative viability ([4]; first compound 3.162 µM): 0.305
relative viability ([4]; first compound 10 µM): 0.324
relative viability ([4]; first compound 31.62 µM): 0.283
relative viability ([4]; first compound 100 µM): 0.198

NCI-H522
relative viability ([1]; first compound 0.04 µM): 0.7
relative viability ([1]; first compound 0.1265 µM): 0.627
relative viability ([1]; first compound 0.4 µM): 0.67
relative viability ([1]; first compound 1.265 µM): 0.667
relative viability ([1]; first compound 4 µM): 0.62
relative viability ([2]; first compound 1 µM): 0.797
relative viability ([2]; first compound 3.162 µM): 0.938
relative viability ([2]; first compound 10 µM): 0.802
relative viability ([2]; first compound 31.62 µM): 1.01
relative viability ([2]; first compound 100 µM): 0.778
relative viability ([3]; first compound 0.04 µM): 1.24
relative viability ([3]; first compound 0.1265 µM): 1.01
relative viability ([3]; first compound 0.4 µM): 0.978
relative viability ([3]; first compound 1.265 µM): 1
relative viability ([3]; first compound 4 µM): 0.984

NCI-H727
relative viability ([1]; first compound 0.04 µM): 0.704
relative viability ([1]; first compound 0.1265 µM): 0.563
relative viability ([1]; first compound 0.4 µM): 0.675
relative viability ([1]; first compound 1.265 µM): 0.649
relative viability ([1]; first compound 4 µM): 0.779
relative viability ([2]; first compound 1 µM): 1.18
relative viability ([2]; first compound 3.162 µM): 1.14
relative viability ([2]; first compound 10 µM): 0.971
relative viability ([2]; first compound 31.62 µM): 1.26
relative viability ([2]; first compound 100 µM): 1.08
relative viability ([4]; first compound 1 µM): 0.385
relative viability ([4]; first compound 3.162 µM): 0.22
relative viability ([4]; first compound 10 µM): 0.529
relative viability ([4]; first compound 31.62 µM): 0.373
relative viability ([4]; first compound 100 µM): 0.353

NCI-H1299
relative viability ([1]; first compound 0.04 µM): 1.04
relative viability ([1]; first compound 0.1265 µM): 1
relative viability ([1]; first compound 0.4 µM): 0.996
relative viability ([1]; first compound 1.265 µM): 0.892
relative viability ([1]; first compound 4 µM): 0.545
relative viability ([4]; first compound 1 µM): 0.75
relative viability ([4]; first compound 3.162 µM): 0.761
relative viability ([4]; first compound 10 µM): 0.543
relative viability ([4]; first compound 31.62 µM): 0.739
relative viability ([4]; first compound 100 µM): 0.264

NCI-H1563
relative viability ([3]; first compound 0.04 µM): 0.869
relative viability ([3]; first compound 0.1265 µM): 0.793
relative viability ([3]; first compound 0.4 µM): 0.776
relative viability ([3]; first compound 1.265 µM): 0.776
relative viability ([3]; first compound 4 µM): 0.841
relative viability ([4]; first compound 1 µM): 0.645
relative viability ([4]; first compound 3.162 µM): 0.607
relative viability ([4]; first compound 10 µM): 0.636
relative viability ([4]; first compound 31.62 µM): 0.674
relative viability ([4]; first compound 100 µM): 0.706

NCI-H1648
relative viability ([1]; first compound 0.04 µM): 0.919
relative viability ([1]; first compound 0.1265 µM): 0.691
relative viability ([1]; first compound 1.265 µM): 0.633
relative viability ([1]; first compound 4 µM): 0.846
relative viability ([2]; first compound 1 µM): 0.554
relative viability ([2]; first compound 3.162 µM): 0.494
relative viability ([2]; first compound 10 µM): 0.479
relative viability ([2]; first compound 31.62 µM): 0.262
relative viability ([2]; first compound 100 µM): 0.48
relative viability ([3]; first compound 0.04 µM): 0.619
relative viability ([3]; first compound 0.1265 µM): 0.588
relative viability ([3]; first compound 1.265 µM): 0.802
relative viability ([3]; first compound 4 µM): 0.661

NCI-H1703
relative viability ([1]; first compound 0.1265 µM): 0.439
relative viability ([1]; first compound 0.4 µM): 0.328
relative viability ([1]; first compound 1.265 µM): 0.487
relative viability ([1]; first compound 4 µM): 0.315
relative viability ([4]; first compound 1 µM): 0.267
relative viability ([4]; first compound 31.62 µM): 0.265
relative viability ([4]; first compound 100 µM): 0.239

NCI-H1792
relative viability ([1]; first compound 0.04 µM): 0.434
relative viability ([1]; first compound 0.1265 µM): 0.334
relative viability ([1]; first compound 0.4 µM): 0.369
relative viability ([1]; first compound 1.265 µM): 0.812
relative viability ([1]; first compound 4 µM): 0.315
relative viability ([3]; first compound 0.04 µM): 1.12
relative viability ([3]; first compound 0.1265 µM): 0.795
relative viability ([3]; first compound 0.4 µM): 0.706
relative viability ([3]; first compound 1.265 µM): 1.11
relative viability ([3]; first compound 4 µM): 0.634
relative viability ([4]; first compound 1 µM): 0.288
relative viability ([4]; first compound 3.162 µM): 0.267
relative viability ([4]; first compound 10 µM): 0.343
relative viability ([4]; first compound 31.62 µM): 0.184
relative viability ([4]; first compound 100 µM): 0.158

NCI-H2342
relative viability ([1]; first compound 0.04 µM): 0.524
relative viability ([1]; first compound 0.1265 µM): 0.459
relative viability ([1]; first compound 0.4 µM): 0.471
relative viability ([1]; first compound 1.265 µM): 0.415
relative viability ([1]; first compound 4 µM): 0.502
relative viability ([2]; first compound 1 µM): 0.863
relative viability ([2]; first compound 3.162 µM): 0.642
relative viability ([2]; first compound 10 µM): 0.674
relative viability ([2]; first compound 31.62 µM): 0.679
relative viability ([2]; first compound 100 µM): 0.712
relative viability ([3]; first compound 0.04 µM): 0.759
relative viability ([3]; first compound 0.1265 µM): 0.768
relative viability ([3]; first compound 0.4 µM): 0.764
relative viability ([3]; first compound 1.265 µM): 0.81
relative viability ([3]; first compound 4 µM): 0.816

SW 900
relative viability ([1]; first compound 0.04 µM): 0.826
relative viability ([1]; first compound 0.1265 µM): 0.765
relative viability ([1]; first compound 0.4 µM): 0.711
relative viability ([1]; first compound 1.265 µM): 0.733
relative viability ([1]; first compound 4 µM): 0.964
relative viability ([2]; first compound 1 µM): 0.497
relative viability ([2]; first compound 3.162 µM): 0.667
relative viability ([2]; first compound 31.62 µM): 0.67
relative viability ([2]; first compound 100 µM): 0.503
relative viability ([3]; first compound 0.04 µM): 0.44
relative viability ([3]; first compound 0.1265 µM): 0.463
relative viability ([3]; first compound 0.4 µM): 0.471
relative viability ([3]; first compound 1.265 µM): 0.516
relative viability ([3]; first compound 4 µM): 0.434
